The IC50 is the concentration that inhibits the measured activity by half. A higher IC50 goes with weaker potency in that assay.

Assay [1] deals with Wee1 (Homo sapiens, UniProt P30291). The experiment in a line: Wee1 pCDK1 activity (known assay). Type of assay: cell-based. As for the experimental part: (§1) The Wee1 pCDK1 and PLK1 activities were determined using known assays.
Assay [2] deals with PLK1 (Homo sapiens, UniProt P53350). Briefly: PLK1 activity (known assay). In kind it is biochemical. The method, then:
as §1

PLK1, sequence (P53350 whole entry, species assumed): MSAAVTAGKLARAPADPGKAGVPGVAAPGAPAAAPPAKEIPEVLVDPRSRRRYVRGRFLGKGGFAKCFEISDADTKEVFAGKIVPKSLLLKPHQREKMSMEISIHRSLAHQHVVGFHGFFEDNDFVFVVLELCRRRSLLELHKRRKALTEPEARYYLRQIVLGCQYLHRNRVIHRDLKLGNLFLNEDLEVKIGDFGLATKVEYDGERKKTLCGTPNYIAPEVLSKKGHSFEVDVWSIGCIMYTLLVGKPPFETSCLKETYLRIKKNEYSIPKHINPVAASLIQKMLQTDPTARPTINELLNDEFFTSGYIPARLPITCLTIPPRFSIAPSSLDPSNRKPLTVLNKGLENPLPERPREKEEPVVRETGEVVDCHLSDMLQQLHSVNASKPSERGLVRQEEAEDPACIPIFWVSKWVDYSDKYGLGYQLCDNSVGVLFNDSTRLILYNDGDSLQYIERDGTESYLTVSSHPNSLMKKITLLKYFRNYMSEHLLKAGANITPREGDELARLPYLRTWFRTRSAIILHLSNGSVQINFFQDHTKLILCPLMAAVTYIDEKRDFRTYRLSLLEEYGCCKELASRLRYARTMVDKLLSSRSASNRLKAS
Wee1, sequence (P30291 whole entry, species assumed): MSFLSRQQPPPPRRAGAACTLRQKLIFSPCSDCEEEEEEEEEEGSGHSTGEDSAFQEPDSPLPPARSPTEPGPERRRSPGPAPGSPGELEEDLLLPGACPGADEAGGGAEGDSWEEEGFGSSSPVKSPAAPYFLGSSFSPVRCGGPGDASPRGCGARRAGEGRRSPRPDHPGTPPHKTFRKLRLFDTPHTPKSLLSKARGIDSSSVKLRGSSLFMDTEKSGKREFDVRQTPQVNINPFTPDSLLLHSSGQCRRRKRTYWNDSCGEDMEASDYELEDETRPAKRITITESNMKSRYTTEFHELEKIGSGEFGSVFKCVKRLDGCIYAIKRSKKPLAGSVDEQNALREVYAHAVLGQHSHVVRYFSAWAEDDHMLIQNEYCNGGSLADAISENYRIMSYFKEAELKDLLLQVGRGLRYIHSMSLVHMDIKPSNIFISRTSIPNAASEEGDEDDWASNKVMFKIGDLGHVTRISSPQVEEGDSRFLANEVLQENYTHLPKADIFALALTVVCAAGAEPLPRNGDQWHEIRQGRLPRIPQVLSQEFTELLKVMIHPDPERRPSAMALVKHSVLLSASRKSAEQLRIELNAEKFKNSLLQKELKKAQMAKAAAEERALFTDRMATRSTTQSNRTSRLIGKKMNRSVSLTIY

As to `CCC1(O)CCc2ccc(Nc3nc(Nc4ccc5c(c4)CN(C)CC54CC4)ncc3C#N)nc21` (centres unmarked) [Example 56, 4-[(7-ethyl-7-hydroxy-5,6-dihydrocyclopenta[b]pyridin-2-yl)amino]-2-[(2-methylspiro[1,3-dihydroisoquinoline-4,1′-cyclopropane]-7-yl)amino]pyrimidine-5-carbonitrile], the IC50 in assay [1] and in assay [2] was 100 to 250 nM throughout.

Turning to `CN1CC2CCC(C1)N2c1ccc(Nc2ncc(C#N)c(Nc3ccc4c(n3)C(C)(O)CC4)n2)cc1` (centres unmarked) [Example 57, 4-[(7-hydroxy-7-methyl-5,6-dihydrocyclopenta[b]pyridin-2-yl)amino]-2-[4-(3-methyl-3,8-diazabicyclo[3.2.1]octan-8-yl)anilino]pyrimidine-5-carbonitrile], the half-inhibitory concentration (IC50) in assay [1] was 250 to 500 nM; in assay [2], > 1000 nM.

Regarding `CN1CCc2cc(Nc3ncc(C#N)c(Nc4ccc5c(n4)C(C)(O)CC5)n3)ccc2C1(C)C` (centres unmarked) [Example 61, 4-[(7-hydroxy-7-methyl-5,6-dihydrocyclopenta[b]pyridin-2-yl)amino]-2-[(1,1,2-trimethyl-3,4-dihydroisoquinolin-6-yl)amino]pyrimidine-5-carbonitrile], the figures for the half-inhibitory concentration (IC50) in assay [1] and in assay [2] were 250 to 500 nM and > 1000 nM, respectively.

Consider `Cc1cc(Nc2ncc(C#N)c(Nc3cccc(N4CCCC4=O)n3)n2)ccc1C1CCN(C)CC1` [Example 62, 2-[3-methyl-4-(1-methyl-4-piperidyl)anilino]-4-[[6-(2-oxopyrrolidin-1-yl)-2-pyridyl]amino]pyrimidine-5-carbonitrile], for which the values for the IC50 in assay [1] and in assay [2] were ≤ 100 nM and 250 to 500 nM, respectively.

For `COCc1cc(Nc2ncc(C#N)c(Nc3cccc(N4CCCC4=O)n3)n2)ccc1C1CCN(C)CC1` [Example 63, 2-[3-(methoxymethyl)-4-(1-methyl-4-piperidyl)anilino]-4-[[6-(2-oxopyrrolidin-1-yl)-2-pyridyl]amino]pyrimidine-5-carbonitrile], the IC50 in assay [1] is 500 to 1000 nM; in assay [2], > 1000 nM.

For `C[C@@H]1CN(C)CCN1c1ccc(Nc2ncc(C#N)c(Nc3cccc(N4CCCC4=O)n3)n2)cc1` [Example 64, 4-[[6-(2-oxopyrrolidin-1-yl)-2-pyridyl]amino]-2-[4-[(2R)-2,4-dimethylpiperazin-1-yl]anilino]pyrimidine-5-carbonitrile], the IC50 in assay [1] was 250 to 500 nM; in assay [2], > 1000 nM.

On to `C[C@H]1CN(C)CCN1c1ccc(Nc2ncc(C#N)c(Nc3cccc(N4CCCC4=O)n3)n2)cc1` [Example 65, 4-[[6-(2-oxopyrrolidin-1-yl)-2-pyridyl]amino]-2-[4-[(2S)-2,4-dimethylpiperazin-1-yl]anilino]pyrimidine-5-carbonitrile], for which the concentration for half-maximal inhibition (IC50) in assay [1] is 100 to 250 nM; in assay [2], > 1000 nM.

`COCc1cc(Nc2ncc(C#N)c(Nc3cccc(N4CCCC4=O)n3)n2)ccc1N1CCN(C)CC1` [Example 66, 2-[3-(methoxymethyl)-4-(4-methylpiperazin-1-yl)anilino]-4-[[6-(2-oxopyrrolidin-1-yl)-2-pyridyl]amino]pyrimidine-5-carbonitrile]: the half-maximal inhibitory concentration (IC50) in assay [1] is 250 to 500 nM; in assay [2] it was > 1000 nM.

`CN1CCC(c2ccc(Nc3ncc(C#N)c(Nc4cccc(N5CCCC5=O)n4)n3)cc2)CC1=O` (centres unmarked) [Example 67, 2-[4-(1-methyl-2-oxo-4-piperidyl)anilino]-4-[[6-(2-oxopyrrolidin-1-yl)-2-pyridyl]amino]pyrimidine-5-carbonitrile]: the IC50 in assay [1] is 500 to 1000 nM; in assay [2], > 1000 nM.

In the case of `CCC1CN(C)CCN1c1ccc(Nc2ncc(C#N)c(Nc3cccc(N4CCCC4=O)n3)n2)cc1` (centres unmarked) [Example 68, 2-[4-(2-ethyl-4-methyl-piperazin-1-yl)anilino]-4-[[6-(2-oxopyrrolidin-1-yl)-2-pyridyl]amino]pyrimidine-5-carbonitrile], the results for the IC50 in assay [1] and in assay [2] were 100 to 250 nM and > 1000 nM, respectively.
